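96-well plates; 48 h exposure; 5 concentrations. Endpoints by linear interpolation between flanking doses. Not reached: highest tested concentration assigned. TGI: concentration producing complete growth inhibition.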
Columns and labels:
Assay in all cases: DTP human tumour cell line panel, 48 h
[1] = test system: SK-OV-3 ovarian
[2] = test system: 786-0 renal
[3] = test system: KM12 colon
[4] = test system: HT29 colon
[5] = test system: K-562 leukemia
[6] = test system: UACC-62 melanoma
[7] = test system: TK-10 renal
[8] = test system: MALME-3M melanoma
[9] = test system: OVCAR-3 ovarian
[10] = test system: A549 NSCLC
[11] = test system: SNB-75 CNS
[12] = test system: EKVX NSCLC
[13] = test system: SF-268 CNS
[14] = test system: OVCAR-4 ovarian
[15] = test system: DMS 273 small cell lung
[16] = test system: HCC-2998 colon
[17] = test system: MOLT-4 leukemia
[18] = test system: SW-620 colon
[19] = test system: U251 CNS
[20] = test system: HCT-15 colon
[21] = test system: SF-295 CNS
[22] = test system: M14 melanoma
[23] = test system: SNB-19 CNS
[24] = test system: RXF 393 renal
[25] = test system: IGROV1 ovarian
[26] = test system: SK-MEL-2 melanoma
[27] = test system: HOP-62 NSCLC
[28] = test system: SK-MEL-28 melanoma
[29] = test system: HOP-92 NSCLC
[30] = test system: OVCAR-8 ovarian
[31] = test system: HOP-18 NSCLC
[32] = test system: DMS 114 small cell lung
[33] = test system: DLD-1 colon
[34] = test system: LXFL 529 NSCLC
[35] = test system: SN12C renal
[36] = test system: LOX IMVI melanoma
[37] = test system: HL-60(TB) leukemia
[38] = test system: NCI-H460 lung
[39] = test system: M19-MEL melanoma
[40] = test system: KM20L2 colon
[41] = test system: UO-31 renal
[42] = test system: RXF-631 renal
[43] = test system: SF-539 CNS
[44] = test system: CAKI-1 renal
[45] = test system: NCI-H23 lung
[46] = test system: COLO 205 colon
[47] = test system: CCRF-CEM leukemia
[48] = test system: RPMI-8226 leukemia
[49] = test system: NCI-H522 lung
[50] = test system: SK-MEL-5 melanoma
[51] = test system: NCI-H226 lung
[52] = test system: UACC-257 melanoma
[53] = test system: HCT-116 colon
[54] = test system: ACHN renal
[55] = test system: SR leukemia
[56] = test system: OVCAR-5 ovarian
[57] = test system: SNB-78 CNS
[58] = test system: XF 498 CNS
[59] = test system: A498 renal

`CCC1=C(C)/C(=C/c2[nH]c(CBr)c(CC)c2C)N=C1CBr` was tested, and the TGI [1] was 45 µM, the TGI [2] was 40.4 µM and the TGI [3] was 26.9 µM. It also gave a TGI [4] of 26.7 µM, a TGI [5] of over 100 µM and a TGI [6] of 24.6 µM. It also gave a TGI [7] of 37.6 µM, a TGI [8] of 41 µM and a TGI [9] of 30.1 µM. It also gave a TGI [10] of 36.7 µM, a TGI [11] of 55.9 µM and a TGI [12] of 49.1 µM. For the same compound, the TGI [13] was 36.8 µM, the TGI [14] was over 100 µM and the TGI [15] was over 100 µM. The TGI [16] was 26.3 µM, the TGI [17] was 27.6 µM and the TGI [18] was 25.3 µM. The TGI [19] was 24.6 µM, the TGI [20] was 27.2 µM and the TGI [21] was 42.7 µM. For the same compound, the TGI [22] was 33.1 µM, the TGI [23] was 33.9 µM and the TGI [24] was 54 µM. The TGI [25] was 38.1 µM, the TGI [26] was 48.5 µM and the TGI [27] was 34.8 µM. For the same compound, the TGI [28] was 34.2 µM, the TGI [29] was 26.7 µM and the TGI [30] was 26.6 µM. It also gave a TGI [31] of 24.7 µM, a TGI [32] of 27.8 µM and a TGI [33] of 29 µM. It also gave a TGI [34] of 17.9 µM, a TGI [35] of 28.3 µM and a TGI [36] of over 100 µM. It also gave a TGI [37] of 25.6 µM, a TGI [38] of 38.9 µM and a TGI [39] of 33.7 µM. For the same compound, the TGI [40] was 32.1 µM, the TGI [41] was 15.8 µM and the TGI [42] was over 100 µM. The TGI [43] was 38.2 µM, the TGI [44] was 25.8 µM and the TGI [45] was 46.7 µM. The TGI [46] was 30.2 µM, the TGI [47] was 9.55 µM and the TGI [48] was 36.7 µM. It also gave a TGI [49] of 9.67 µM and a TGI [50] of 30.5 µM.
`Nc1ccc2c(c1)C(=O)N(O)C2=O` gave a TGI [1] of over 100 µM, a TGI [3] of over 100 µM and a TGI [4] of over 100 µM. It also gave a TGI [5] of over 100 µM, a TGI [6] of over 100 µM and a TGI [7] of over 100 µM. For the same compound, the TGI [8] was over 100 µM, the TGI [9] was over 100 µM and the TGI [10] was over 100 µM. For the same compound, the TGI [51] was over 100 µM, the TGI [11] was over 100 µM and the TGI [12] was over 100 µM. For the same compound, the TGI [52] was over 100 µM, the TGI [13] was over 100 µM and the TGI [14] was over 100 µM. For the same compound, the TGI [53] was over 100 µM, the TGI [16] was over 100 µM and the TGI [17] was over 100 µM. The TGI [18] was over 100 µM, the TGI [19] was over 100 µM and the TGI [20] was over 100 µM. For the same compound, the TGI [21] was over 100 µM, the TGI [22] was over 100 µM and the TGI [23] was over 100 µM. The TGI [24] was over 100 µM, the TGI [25] was over 100 µM and the TGI [27] was over 100 µM. It also gave a TGI [28] of over 100 µM, a TGI [54] of over 100 µM and a TGI [32] of over 100 µM. For the same compound, the TGI [33] was over 100 µM, the TGI [55] was over 100 µM and the TGI [34] was over 100 µM. It also gave a TGI [56] of over 100 µM, a TGI [35] of over 100 µM and a TGI [36] of over 100 µM. The TGI [37] was over 100 µM, the TGI [38] was over 100 µM and the TGI [39] was over 100 µM. The TGI [40] was over 100 µM, the TGI [41] was over 100 µM and the TGI [57] was over 100 µM. For the same compound, the TGI [43] was over 100 µM, the TGI [45] was over 100 µM and the TGI [58] was over 100 µM. For the same compound, the TGI [47] was over 100 µM and the TGI [59] was over 100 µM.
